Data as given in patent US20150225303A1, “IRON-ESSENTIAL FOR FLORA AND FAUNA” (priority 2012, published 2015).

Columns and labels:
[1] = prior art statement; cited from earlier work
maize crop = test: Field experiment in maize crop, foliar application; assay type: in vivo; conditions: for Stem girth R1 / Cobs yield R1 / No. of cobs R1 / Seed yield R1: replicate R1; for Cobs yield MEAN / No. of cobs MEAN / Seed yield MEAN / Stem girth MEAN: mean of R1-R3; for Cobs yield R3 / No. of cobs R3 / Seed yield R3 / Stem girth R3: replicate R3
Procedure: Field experiments in maize crop were conducted using the composition of the present invention at Maize Research Centre, Hyderabad during kharif 2009. […] GRIP (Fe HEDP)-15% […]+27% P2O5-1 g/l of water • […] of water • […] of water • T 5: Fe EDTA-12%-1 g/l of water • T 6: […] Control (Only recommended Fertilizer dose) For all the six treatments, the composition of the present invention was used along with the recommended fertilizer dose (180-60-60 kg N-P2O5-K2O/ha). The composition of the present invention (Fe-HEDP) was applied at three stages 20, 40 and 60 days after sowing. The crops were harvested in the month of November i.e. four months after sowing.

[2] = treatment level 2 (2 g/l of water; GRIP T2 printed as 1 g/l)

## O=C([O-])C(NCCNC(C(=O)[O-])c1ccccc1[O-])c1ccccc1[O-].[Fe+3] (centres unmarked) [Fe-EDDHA, Fe-ethylene diamine-N,N′-bis (2-hydroxyphenylacetic acid)]
[1]
  pH level up to which the chelate is stable: up to 11.0

## O=C([O-])CN(CCN(CC(=O)[O-])CC(=O)[O-])CC(=O)[O-].[Fe+3] [Fe EDTA, Fe-Ethylene diamine tetra acetic acid]
Maize crop; 1 g/l of water, applied 20, 40 and 60 days after sowing
  Stem girth R1: 6.6 cm
Maize crop; 1 g/l of water
  Cobs yield MEAN: 7516.67 kg/ha
  No. of cobs MEAN: 40.17 ′000 ha
  Seed yield MEAN: 5777.67 kg/ha
  Stem girth MEAN: 6.53 cm
  Cobs yield R1: 6205 kg/ha
  No. of cobs R1: 38.8 ′000 ha
  Seed yield R1: 5022.0 kg/ha
  Cobs yield R3: 8490 kg/ha
  No. of cobs R3: 41.2 ′000 ha
  Seed yield R3: 6448.0 kg/ha
  Stem girth R3: 6.6 cm
Maize crop; [2]
  Cobs yield MEAN: 7875.00 kg/ha
  No. of cobs MEAN: 37.8 ′000 ha
  Seed yield MEAN: 5888.00 kg/ha
  Stem girth MEAN: 6.43 cm
  Cobs yield R1: 6935 kg/ha
  No. of cobs R1: 35.6 ′000 ha
  Seed yield R1: 4355.0 kg/ha
  Stem girth R1: 6.5 cm
  Cobs yield R3: 8200 kg/ha
  No. of cobs R3: 41.0 ′000 ha
  Seed yield R3: 7633.0 kg/ha
  Stem girth R3: 6.1 cm

## O=C([O-])CN(CCN(CC(=O)[O-])CC(=O)[O-])CCN(CC(=O)[O-])CC(=O)[O-].[Fe+3] [Fe-DTPA, Fe-Diethylene triamine penta acetic acid]
[1]
  pH level up to which the chelate is stable: up to 7.0
